We go through three compounds from ChEMBL document CHEMBL1155676, “Isolation and biochemical characterization of a new topoisomerase I inhibitor from Ocotea leucoxylon” (J Nat Prod, 2000).

The species named for one assay is Bos taurus. The assay can be described thus: Inhibition of calf thymus DNA topoisomerase 1-mediated supercoiled pSP64 plasmid DNA relaxation at 20 uM.
Assay [1] relates to P388. Put plainly: Cytotoxicity against camptothecin-resistant mouse P388 cells by soft-agar colony-formation assay. It counts as functional, cell-based.
Assay [2] concerns Saccharomyces cerevisiae. Put plainly: Growth inhibition of Saccharomyces cerevisiae RJ03 after 48 hrs by XTT assay. It is filed as functional. For orientation: Tetrazolium assays rely on reduction of a dye to a coloured formazan, in cell work by metabolically active cells.
The target of assay [3] is T1, DNA topoisomerase 1 (Homo sapiens) (UniProt P11387).
T1 sequence (whole entry): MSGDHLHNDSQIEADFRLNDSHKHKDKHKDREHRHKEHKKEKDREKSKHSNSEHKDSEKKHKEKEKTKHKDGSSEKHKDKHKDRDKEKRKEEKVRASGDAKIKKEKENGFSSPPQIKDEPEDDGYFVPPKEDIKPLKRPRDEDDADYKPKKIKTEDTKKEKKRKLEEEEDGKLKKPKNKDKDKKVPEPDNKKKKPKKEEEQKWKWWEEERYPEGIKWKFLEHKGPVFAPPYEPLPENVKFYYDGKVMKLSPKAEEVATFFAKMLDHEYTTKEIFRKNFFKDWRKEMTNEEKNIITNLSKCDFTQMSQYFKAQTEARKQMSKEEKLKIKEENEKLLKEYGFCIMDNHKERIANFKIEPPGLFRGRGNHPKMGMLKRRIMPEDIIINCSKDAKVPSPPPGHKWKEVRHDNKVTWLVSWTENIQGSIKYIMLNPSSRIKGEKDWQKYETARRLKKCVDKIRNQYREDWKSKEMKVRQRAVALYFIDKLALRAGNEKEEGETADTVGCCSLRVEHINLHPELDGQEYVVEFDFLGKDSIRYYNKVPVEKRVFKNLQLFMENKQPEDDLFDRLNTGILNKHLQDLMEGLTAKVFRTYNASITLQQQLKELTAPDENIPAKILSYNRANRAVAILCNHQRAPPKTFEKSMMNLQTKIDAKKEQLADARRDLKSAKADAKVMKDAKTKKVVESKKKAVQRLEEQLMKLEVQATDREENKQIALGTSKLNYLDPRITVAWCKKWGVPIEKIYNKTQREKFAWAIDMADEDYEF
Put plainly: Inhibition of human recombinant DNA topoisomerase 1-mediated pBR322 DNA relaxation activity at 20 to 200 uM after 30 mins by gel electrophoresis.

The subject of a further assay is B16-F10. Put plainly: Cytotoxicity against mouse B16F10 cells upto 30 uM. It is filed as functional, cell-based.
A further assay is filed under the species Mus musculus. The assay can be described thus: Cytotoxicity against mouse lung carcinoma cells upto 30 uM. It counts as functional, cell-based.
The test system of a further assay is COLO 205. The assay can be described thus: Cytotoxicity against human COLO205 cells upto 30 uM. It counts as functional, cell-based.
The subject of assay [4] is P388. The assay can be described thus: Cytotoxicity against mouse P388 cells by soft-agar colony-formation assay. It is filed as functional, cell-based.
Assay [5] relates to Saccharomyces cerevisiae. Put plainly: Growth inhibition of Saccharomyces cerevisiae RS321 after 48 hrs by XTT assay. It is filed as functional.
Assay [6] addresses T1, DNA topoisomerase 1 (Homo sapiens). Put plainly: Induction of human recombinant topoisomerase 1-mediated pBR322 plasmid DNA cleavage assessed as increase in nicked form 2 at 100 uM after 60 mins.
The subject of assay [7] is Saccharomyces cerevisiae. The assay can be described thus: Growth inhibition of Saccharomyces cerevisiae RS322 after 48 hrs by XTT assay. It is filed as functional.

Each structure is given as a SMILES string. The source made the active and inactive calls. No cut-off for these calls is given here. A value given as a limit tells only on which side of the number the result lay.

The term IC50 denotes the point on the concentration scale where inhibition reaches its midpoint. Higher therefore signals a need for much substance.

Turning to `COc1cc2c[n+](C)c3c4cc5c(cc4ccc3c2cc1OC)OCO5`, the outcome in the assay filed under Bos taurus was Active.

For `COc1cc2c(cc1OC)-c1c3c(cc4ccnc(c14)C2=O)OCO3` [DICENTRINONE], the 50% inhibitory concentration (IC50) in the assay with P388 [1] and in the assay on P388 [4] was 100 µM each time. Besides, the results for the IC12 in the assay with Saccharomyces cerevisiae [2], with Saccharomyces cerevisiae [5] and with Saccharomyces cerevisiae [7] were above 2000 µg/mL, above 2000 µg/mL and 49 µg/mL, respectively. For the same compound, the result in assay [3] was inactive. The Activity entry with B16-F10 was “Not toxic”; in the assay filed under Mus musculus, “Not toxic”; in the assay with COLO 205, “Not toxic”; in assay [6] it was 29%.

With `COc1cc2c(cc1OC)-c1c3c(cc4c1[C@H](C2)N(C)CC4)OCO3`, the result in the assay on Saccharomyces cerevisiae [2], with Saccharomyces cerevisiae [5] and with Saccharomyces cerevisiae [7] was inactive.
